# Data published in paper PMC5291098, “Molecular mutagenesis of ppGpp: turning a RelA activator into an inhibitor” (Scientific Reports, 2017).
# “Also recorded” adds a separate entry of the source.
# Columns and labels:
# [1] = target: T1, E. coli RelA (Escherichia coli, UniProt P0AG20); assay: Inhibition of RelA activated by programmed 'starved' ribosomal complexes containing deacylated A-site tRNAPhe; format: biochemical; conditions: 30 nM RelA, 0.5 μM 70S, 2 μM tRNAPhe, 2 μM tRNAiMet, 2 μM mRNA(MF), 100 μM ppGpp, 0.3 mM [3H]GDP, 1 mM ATP, 5 mM Mg2+; read-out: IC50, 70S(MF:tPhe)
# T1 construct: made in house
# T1 sequence (P0AG20 whole entry): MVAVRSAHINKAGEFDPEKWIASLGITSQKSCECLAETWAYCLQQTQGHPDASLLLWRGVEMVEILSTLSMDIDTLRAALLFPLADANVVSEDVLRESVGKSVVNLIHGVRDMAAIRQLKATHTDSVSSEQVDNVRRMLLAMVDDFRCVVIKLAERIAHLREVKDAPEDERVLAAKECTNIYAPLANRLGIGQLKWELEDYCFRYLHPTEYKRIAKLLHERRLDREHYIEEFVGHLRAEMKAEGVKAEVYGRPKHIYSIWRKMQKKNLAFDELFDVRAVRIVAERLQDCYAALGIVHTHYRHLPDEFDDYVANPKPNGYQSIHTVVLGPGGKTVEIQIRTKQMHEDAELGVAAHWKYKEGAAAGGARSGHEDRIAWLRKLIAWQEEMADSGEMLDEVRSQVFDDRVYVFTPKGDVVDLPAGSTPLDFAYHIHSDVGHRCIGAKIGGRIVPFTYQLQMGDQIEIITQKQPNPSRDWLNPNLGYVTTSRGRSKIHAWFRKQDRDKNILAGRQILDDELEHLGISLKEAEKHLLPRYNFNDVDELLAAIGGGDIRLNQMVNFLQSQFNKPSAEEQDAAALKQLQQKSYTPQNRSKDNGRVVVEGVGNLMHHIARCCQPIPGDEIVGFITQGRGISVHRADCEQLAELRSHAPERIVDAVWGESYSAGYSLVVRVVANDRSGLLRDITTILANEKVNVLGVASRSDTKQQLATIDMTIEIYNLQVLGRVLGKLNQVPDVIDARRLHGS
# Protocol: Screening was performed in a cost-efficient way using RelA activated by the presence of vacant 70S ribosomes and 100 μM ppGpp. However, to become fully active, RelA requires the presence of ‘starved’ ribosomal complexes containing deacylated A-site tRNA[17]. We therefore prepared ‘starved’ complexes using model mRNA coding for fMetPhe (MF) dipeptide and purified deacylated tRNAs tRNA^Phe and tRNA^fMeti[42] to test the efficiency of DR-4250 and DR-M014 in this more physiologically relevant system (Fig. 4a,b).
# Figure 4 Functional studies of DR-M014 and DR-4250 with programmed ribosomal complexes. (a,b) Inhibition of RelA activated by starved ribosomal complexes containing deacylated A-site tRNA^Phe. […]
# Both EF-G GTPase reaction and ppGpp synthesis by RelA were followed by TLC analysis followed by scintillation counting according to Mechold and colleagues, with modifications1. […] TLC was run in buffer, plates dried, cut into sections guided by UV-shadowing and 3H radioactivity was quantified by scintillation counting in Optisafe-3 (Fisher) scintillation cocktail on Perkin Elmer Tricarb 2810TR counter. Conversion of substrate to product was quantified as described in Shyp et al. (2012)2. […]
# Screening: all experiments were performed in HEPES:Polymix, Mg2+ of 5 mM, 37 °C. […] Inhibition efficiency (IC50) was calculated using 4-parameter logistic model (Hill equation) as per Sebaugh (2011)3. […]
# [2] = tested on: T2, E. coli σ70-RNAP holoenzyme; assay: Multiple round in vitro transcription by σ70-RNAP (rrnB P1 and rna1 promoters); format: biochemical, Escherichia coli; conditions: for Effect of DksA addition on RNAP inhibition, rrnB P1 promoter (in words): 2 μM DksA; for Inhibition of RNAP, rrnB P1 promoter (in words): absence of DksA, irrespective of presence or absence of 100 μM ppGpp
# T2 construct: purchased Epicentre
# Protocol: Next, we tested their effects on RNAP. […] We used multiple round in vitro transcription driven from the rrnB P1, a well-characterized ppGpp/DksA inhibited promoter, as described earlier[49]. The assays were performed in the presence and absence of 2 μM DksA and/or 100 μM ppGpp (Fig. 5a).
# Effect of inhibitors on rrnB P1 (−66 to +50) promoter transcription by RNAP. Graphs depicting inhibitor (0, 0.025, 0.05, 0.15, 0.4 and 0.6 mM) titrations performed at 30 °C in T-buffer with 0.5 nM template (σ^70-rrnB P1 promoter (pRLG6214)) and 5 nM σ^70-RNAP, in presence or absence of 100 μM ppGpp and/or 2 μM DksA. Error bars represent standard deviations of linear regression estimates, each experiment was performed at least three times.
# The assays were performed as per Bernardo et al. (2006)4 with minor modifications. Reactions were carried out in T-buffer (50 mM Tris-HCl pH 7.5, 100 mM NaCl, 10 mM MgCl2, 1 mM dithiothreitol, 0.1 mM EDTA and 0.275 mg of BSA per ml) at 30°C. Inhibitors were titrated to final concentrations of 0, 0.025, 0.05, 0.15, 0.4 and 0.6 mM. E. coli s 70-RNAP holoenzyme (Epicentre, final concentration 5 nM) and template plasmid DNA containing s70-rrnB P1 promoter, (pRLG6214, final concentration 0.5 nM) was used for all experiments. Before initiation of transcription, E. coli s70-RNAP holoenzyme and T buffer were incubated at 30°C for 5 min. Above mix was added to predispensed mixture of inhibitor and the template plasmid DNA containing s70-rrnB P1 promoter (pRLG6214), incubated for further 20 min to initiate open complex formation. 2.5 µl of a mixture of ATP (ﬁnal concentration 0.5 mM), GTP and CTP (ﬁnal concentration 0.2 mM each), UTP (ﬁnal concentration 0.08 mM) and [a-32P]-UTP (5 µCi at > 3000 Ci/mmol, PerkinElmer) was added to initiate transcription by RNAP. After 7 min, 1 µl heparin (0.125 mg/ml ﬁnal concentration) was added to the reaction mixture to prevent re-initiation and further incubated for 5 min to allow completion of initiated transcripts. Transcription was terminated by addition of formamide loading buffer and samples were electrophoresed on a 7M urea-5% polyacrylamide gel and quantified by phosphorimaging.
# [3] = target: E. faecalis SAS RelQ (RelQEf) (Enterococcus faecalis, UniProt Q830U9); assay: Inhibition of E. faecalis SAS RelQ ppGpp synthesis; format: biochemical; conditions: for Effect on RelQEf activity (in words): concentrations up to 1 mM
# Sequence of E. faecalis SAS RelQ (RelQEf) (Q830U9 entry or part of it): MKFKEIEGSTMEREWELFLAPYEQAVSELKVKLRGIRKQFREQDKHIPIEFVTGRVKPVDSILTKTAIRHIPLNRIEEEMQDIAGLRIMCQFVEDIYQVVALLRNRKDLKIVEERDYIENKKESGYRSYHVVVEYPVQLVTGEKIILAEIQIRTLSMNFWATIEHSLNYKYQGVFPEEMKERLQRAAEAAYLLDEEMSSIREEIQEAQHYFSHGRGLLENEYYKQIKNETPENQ
# Description: In E. coli, ppGpp is synthesized by the multi-domain RSHs RelA and SpoT, however, numerous single-domain RSHs – Small Alarmone Synthetases (SAS) – are widely distributed across bacterial taxa[3]. […] Therefore we tested the effects of DR-4250, DR-M014 and DR-5163 on RelQEf activity (Supplementary Figure 2).
# Detailed description of experimental procedures can be found in Supplementary Text. Biochemical assays utilize in vitro translation[58] and stringent response[15] systems from E. coli purified components. Experiments were performed in HEPES:Polymix[58] buffer with either 5 (for enzymatically assembled initiation complexes) or 15 mM (for vacant 70 S, as well as non-enzymatically assembled programmed ribosomes) Mg^2+. Expression and purification of E. faecalis RelQ was performed as per Gaca (2015) and colleagues. GTPase and ppGpp synthesis were followed using TLC separation and radiochemical detection of ^3H-labelled nucleotides. Multiple round in vitro transcription assays were performed as per Bernardo et al.[49] with minor modifications. Inhibition efficiency (IC50) was calculated using 4-parameter logistic model (Hill equation) as per Sebaugh[60].
# RelQ activity0.4 RelQ activity0.4 RelQ activity0.4
# Supplementary Figure 2 | Inhibition of E. faecalis SAS RelQ by DR-4250, DR-
# M014 and DR-5163 is inefficient. The reaction mixture contains 0.25 µM RelQEf,
# 300 µM [3H] GDP, 0.5 mg/ml BSA, 100 µM ppGpp, 1 mM ATP in Hepes:Polymix at […]
Structure (SMILES),IC50 [1] [µM],"Effect of DksA addition on RNAP inhibition, rrnB P1 promoter (in words) [2]","Inhibition of RNAP, rrnB P1 promoter (in words) [2]",Effect on RelQEf activity (in words) [3],"Inhibition of RNAP, ppGpp-insensitive promoter rna1 (in words) ([2]; presence or absence of 100 μM ppGpp and/or 2 μM DksA (Supplementary Figure 4))","IC50 ([3]; 0.25 µM RelQEf, 300 µM [3H]GDP, 100 µM ppGpp, 1 mM ATP, 37°C) [µM]"
Nc1nc2c(ncn2C2CCN(C(=O)P(=O)(O)O)CC2)c(=O)[nH]1 [DR-M014],155 ± 14,pronounced protective effect,more potent inhibitors of RNAP then of RelA,inefficient; also recorded: almost inactive,–,–
"Nc1nc2c(ncn2C2OC(COP(=O)(O)OCP(=O)(O)O)C(OP(=O)(O)OCP(=O)(O)O)C2O)c(=O)[nH]1 (stereo not shown) [DR-4250, Guanosine 3’,5’-di(phosphonomethoxyphosphate)]",41 ± 7,pronounced protective effect,more potent inhibitors of RNAP then of RelA,inefficient,the same behavior,235 ± 19
